Measured values published in US20230219921A1, “KCNT1 INHIBITORS AND METHODS OF USE” (Praxis Precision Medicines, Inc., priority 2020, published 2023).

These molecules were tested against T1, KCNT1 (KNa1.1, Slack) (Homo sapiens, UniProt Q5JUK3) (assay: KCNT1 patch clamp assay (SyncroPatch 384PE automated patch clamp)). Details: tetracycline inducible cell line (HEK-TREX); perforated patch mode; step from -80 mV to 0 mV; room temperature; read-out: KCNT1-WT IC50.
T1 construct: expressed in transfected cells; host or cells: HEK-TREX (tetracycline-inducible HEK cell line)
T1 sequence (Q5JUK3 1-1230): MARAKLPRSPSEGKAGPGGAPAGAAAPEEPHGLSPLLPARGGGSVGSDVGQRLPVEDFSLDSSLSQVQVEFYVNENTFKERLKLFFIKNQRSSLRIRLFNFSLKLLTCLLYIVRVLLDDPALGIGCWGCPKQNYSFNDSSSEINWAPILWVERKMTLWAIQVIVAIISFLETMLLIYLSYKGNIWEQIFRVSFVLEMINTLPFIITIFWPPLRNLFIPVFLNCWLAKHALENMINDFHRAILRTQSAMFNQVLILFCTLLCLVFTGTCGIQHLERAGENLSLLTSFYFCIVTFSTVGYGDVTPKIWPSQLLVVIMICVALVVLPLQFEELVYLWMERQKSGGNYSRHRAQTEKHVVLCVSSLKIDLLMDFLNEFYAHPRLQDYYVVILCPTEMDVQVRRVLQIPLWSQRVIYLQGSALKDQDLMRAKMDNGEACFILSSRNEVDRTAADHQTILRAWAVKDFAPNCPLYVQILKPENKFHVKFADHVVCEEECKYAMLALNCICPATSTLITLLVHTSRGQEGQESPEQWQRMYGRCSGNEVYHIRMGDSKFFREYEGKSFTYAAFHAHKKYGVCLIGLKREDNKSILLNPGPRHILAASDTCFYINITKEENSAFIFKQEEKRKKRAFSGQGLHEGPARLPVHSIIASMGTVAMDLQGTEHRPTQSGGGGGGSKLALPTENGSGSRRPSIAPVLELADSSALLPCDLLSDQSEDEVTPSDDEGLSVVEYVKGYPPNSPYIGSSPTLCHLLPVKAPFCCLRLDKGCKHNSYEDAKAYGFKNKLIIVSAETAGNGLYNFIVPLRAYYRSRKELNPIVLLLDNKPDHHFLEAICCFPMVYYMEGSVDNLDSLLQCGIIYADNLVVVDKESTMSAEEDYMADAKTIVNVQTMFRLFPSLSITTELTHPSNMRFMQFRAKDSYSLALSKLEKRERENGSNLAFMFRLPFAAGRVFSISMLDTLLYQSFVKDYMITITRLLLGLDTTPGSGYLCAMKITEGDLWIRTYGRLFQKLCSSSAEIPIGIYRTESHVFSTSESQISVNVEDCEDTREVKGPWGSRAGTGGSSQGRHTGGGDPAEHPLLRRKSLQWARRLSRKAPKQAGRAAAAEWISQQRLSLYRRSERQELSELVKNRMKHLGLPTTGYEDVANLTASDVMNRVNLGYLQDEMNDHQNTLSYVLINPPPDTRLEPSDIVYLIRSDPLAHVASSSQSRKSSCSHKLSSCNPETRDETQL
Assay type: cell-based
Procedure: Inhibition of KCNT1 (KNa1.1, Slack) was evaluated using a tetracycline inducible cell line (HEK-TREX). Currents were recorded using the SyncroPatch 384PE automated, patch clamp system. Pulse generation and data collection were performed with PatchController384 V1.3.0 and DataController384 V1.2.1 (Nanion Technologies). The access resistance and apparent membrane capacitance were estimated using built-in protocols. Current were recorded in perforated patch mode (10 μM escin) from a population of cells. The cells were lifted, triturated, and resuspended at 800,000 cells/ml. The cells were allowed to recover in the cell hotel prior to experimentation. Currents were recorded at room temperature. The external solution contained the following (in mM): NaCl 105, NMDG 40, KCl 4, MgCl2 1, CaCl2 5 and HEPES 10 (pH=7.4, Osmolarity ˜300 mOsm). The extracellular solution was used as the wash, reference and compound delivery solution. The internal solution contained the following (in mM): NaCl 70, KF 70, KCl 10, EGTA 5, HEPES 5 and Escin 0.01 (pH=7.2, Osmolarity ˜295 mOsm). Escin is made at a 5 mM stock in water, aliquoted, and stored at −20° C. The compound plate was created at 2× concentrated in the extracellular solution. The compound was diluted to 1:2 when added to the recording well. The amount of DMSO in the extracellular solution was held constant at the level used for the highest tested concentration. A holding potential of −80 mV with a 100 ms step to 0 mV was used. Mean current was measured during the step to 0 mV. […] The average mean current from 3 sweeps was calculated and the % inhibition of each compound was calculated. The % Inhibition as a function of the compound concentration was fit with a Hill equation to derive IC50, slope, min and max parameters. If KCNT1 inhibition was less than 50% at the highest tested concentration or if an IC50 could not be calculated, then a percent inhibition was reported in place of the IC50.
In this table, “A” indicates IC50 of less than or equal to 1 μM; “B” indicates inhibition of between 1 μM to 20 μM; and “C” indicates inhibition of greater than or equal to 20 μM.

| Structure (SMILES) | IC50 |
| --- | --- |
| CS(=O)(=O)c1ccc(C(=O)NCc2ccc(C(F)(F)F)cn2)s1 [Compound 48, 5-(methylsulfonyl)-N-((5-(trifluoromethyl)pyridin-2-yl)methyl)thiophene-2-carboxamide] | 1 to 20 µM |
| CS(=O)(=O)c1ccc(C(=O)NCc2ccc(C3(C(F)(F)F)CC3)cc2)s1 [Compound 37, 5-(methylsulfonyl)-N-(4-(1-(trifluoromethyl)cyclopropyl)benzyl)thiophene-2-carboxamide] | ≤ 1 µM |
| CNS(=O)(=O)c1ccc(C(=O)NCc2cccc(Cl)c2)s1 [Compound 18, N-(3-chlorobenzyl)-5-(N-methylsulfamoyl)thiophene-2-carboxamide] | ≤ 1 µM |
| CNS(=O)(=O)c1ccc(C(=O)NCc2ccc(NC(C)C)cc2)s1 [Compound 40, N-(4-(isopropylamino)benzyl)-5-(N-methylsulfamoyl)thiophene-2-carboxamide] | ≥ 20 µM |
| CNS(=O)(=O)c1ccc(C(=O)N[C@H](C)c2ccc(Cl)cc2Cl)s1 [Compound 1, (R)—N-(1-(2,4-dichlorophenyl)ethyl)-5-(N-methylsulfamoyl)thiophene-2-carboxamide] | 1 to 20 µM |
| CNS(=O)(=O)c1ccc(C(=O)NCc2ccc(Cl)c(F)c2)s1 [Compound 20, N-(4-chloro-3-fluorobenzyl)-5-(N-methylsulfamoyl)thiophene-2-carboxamide] | ≤ 1 µM |
| CNS(=O)(=O)c1ccc(C(=O)NCc2ccc(N3CCCC3)cc2)s1 [Compound 30, 5-(N-methylsulfamoyl)-N-(4-(pyrrolidin-1-yl)benzyl)thiophene-2-carboxamide] | ≥ 20 µM |
| CNS(=O)(=O)c1ccc(C(=O)NCc2ccc(Cl)cc2F)s1 [Compound 10, N-(4-chloro-2-fluorobenzyl)-5-(N-methylsulfamoyl)thiophene-2-carboxamide] | ≤ 1 µM |

The next lines start with the values.

| IC50 | Structure (SMILES) |
| --- | --- |
| ≤ 1 µM | CC(C)c1ccc(CNC(=O)c2ccc(S(C)(=O)=O)s2)cc1 [Compound 24, N-(4-isopropylbenzyl)-5-(methylsulfonyl)thiophene-2-carboxamide] |
| ≤ 1 µM | CS(=O)(=O)c1ccc(C(=O)NCc2ccc(C(F)F)cc2)s1 [Compound 51, N-(4-(difluoromethyl)benzyl)-5-(methylsulfonyl)thiophene-2-carboxamide] |
| ≤ 1 µM | CCS(=O)(=O)c1ccc(C(=O)NCc2ccc(C(F)(F)F)cc2)s1 [Compound 49, 5-(ethylsulfonyl)-N-(4-(trifluoromethyl)benzyl)thiophene-2-carboxamide] |
| ≤ 1 µM | CCS(=O)(=O)c1ccc(C(=O)NCc2ccc(Cl)cc2Cl)s1 [Compound 16, N-(2,4-dichlorobenzyl)-5-(ethylsulfonyl)thiophene-2-carboxamide] |
| ≤ 1 µM | CNS(=O)(=O)c1ccc(C(=O)NCc2ccc(Cl)cc2)s1 [Compound 7, N-(4-chlorobenzyl)-5-(N-methylsulfamoyl)thiophene-2-carboxamide] |
| ≤ 1 µM | CNS(=O)(=O)c1ccc(C(=O)NCc2ccc(Cl)cc2Cl)s1 [Compound 3, N-(2,4-dichlorobenzyl)-5-(N-methylsulfamoyl)thiophene-2-carboxamide] |
| ≤ 1 µM | CNS(=O)(=O)c1ccc(C(=O)N[C@@H](C)c2ccc(Cl)cc2Cl)s1 [Compound 2, (S)—N-(1-(2,4-dichlorophenyl)ethyl)-5-(N-methylsulfamoyl)thiophene-2-carboxamide] |
| ≤ 1 µM | CNS(=O)(=O)c1ccc(C(=O)NCc2ccc(C3CC3)cc2)s1 [Compound 26, N-(4-cyclopropylbenzyl)-5-(N-methylsulfamoyl)thiophene-2-carboxamide] |
| ≤ 1 µM | CC(C)(C)c1ccc(CNC(=O)c2ccc(S(C)(=O)=O)s2)cc1 [Compound 32, N-(4-(tert-butyl)benzyl)-5-(methylsulfonyl)thiophene-2-carboxamide] |
| ≤ 1 µM | CS(=O)(=O)c1ccc(C(=O)NCc2ccc(Cl)cc2Cl)s1 [Compound 6, N-(2,4-dichlorobenzyl)-5-(methylsulfonyl)thiophene-2-carboxamide] |
